Measurements published in patent US20260364184A1, “COMPOUND BASED ON OXOISOINDOLINYL-SUBSTITUTED TETRAHYDROPYRIMIDINE-DIONE AND USE THEREOF” (GLUETACS THERAPEUTICS (SHANGHAI) CO., LTD., priority 2023, published 2026).

Key:
Type in all cases: cell-based
[1] = system: Human myeloid monocytic leukemia cell line (MV-4-11); test: Inhibition of MV-4-11 cell proliferation (CellTiter luminescent viability); details: Homo sapiens, MV4-11, Table IA3, IRAK4 inhibitor-based, 96 hours; for inhibition at 0.01 µM: MV-4-11, 10 nM, read-out: Inhibition Rate at 10 nM (%); for inhibition at 0.5 µM: MV-4-11, 500 nM, read-out: Inhibition Rate at 500 nM (%)
How it was run: (§1)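 Cells are seeded in 96-well plates, cultured at 37 °C, 5% CO2, and treated next day with 5-fold serial compound dilutions (stock series from 2000 μM; 0.5 μL into 100 μL medium). Viability is read by CellTiter-Meiluncell luminescence after the set exposure, and IC50 is taken from growth-inhibition curves.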

[2] = Inhibition of RPMI-8226 cell proliferation (CellTiter luminescent viability); details: Homo sapiens; Table IA4, IRAK4 inhibitor-based; RPMI-8226, 10 nM, 96 hours; read-out: Inhibition Rate at 10 nM (%)
Procedure: (§2) The tumor cells used herein were cultured in a cell culture medium listed in table 3 at 37 °C in an incubator with 5% CO2. Prior to experimentation, all cell lines used were correctly identified by STR profiling, and tested negative for mycoplasma contamination using a mycoplasma detection kit through routine screenings.
(§3) The IC50 values of the compounds of the present disclosure (including the compounds in Table 1, Table 2, and Examples 1-468) were determined using the CellTiter-Meiluncell Luminescent Cell Viability Assay Kit from Dalian Meilun Biotech Co., Ltd. The detailed procedure is as follows: Tumor cells were seeded in 96-well cell culture plates at the densities specified in Table 4. On the following day, the test compounds of the present disclosure were subjected to serial dilution. The dilution can be performed according to one of the following two methods: • (1) The first dilution method: The test compounds of the present disclosure (including the compounds in Table 1, Table 2, and Examples 1-468) were subjected to 5-fold serial dilutions starting from a highest concentration of 2000 μM, resulting in a total of 9 concentrations from high to low (2000, 400, 80, 16, 3.2, 0.64, 0.128, 0.0256, 0.00512 μM). Subsequently, 0.5 μL of the test compound dilution was transferred into the 96-well plate containing the cells, with each well containing 100 μL of cell culture medium. […] Into the 96-well plate, the diluted test compounds and corresponding detection reagents were added, resulting in final test compound concentrations of 500 nM and 10 nM, respectively. The experimental procedure is described below using the diluted 2 μM test compound as an example.
(§4) 0.5 μL of the aforementioned diluted compound of the present disclosure (including the compounds in Table 1, Table 2, and Examples 1-468) was added to the seeded cells in 100 μL of medium, yielding a final test compound concentration of 10 nM. After the cells were treated with the compounds of the present disclosure for a specified period, the cell viability assay reagent was added to the culture medium according to the kit's instructions to determine cell viability. […] All controls were treated using the same procedure as the compounds of the present disclosure. The growth inhibition curves for the compounds of the present disclosure were plotted using Prism GraphPad software, and the IC50 values were calculated therefrom.

[3] = system: Human B-Cell Lymphoma Cells (RPMI-8226); test: as above; details: Table IA4, IRAK4 inhibitor-based, RPMI-8226, 500 nM, 96 hours, read-out: Inhibition Rate at 500 nM (%)
Procedure: as §2, §3, §4

[4] = target: T1, IRAK4 (Homo sapiens, UniProt Q9NWZ3); test: Western blot degradation of IRAK4; details: hPBMC Cell; 24 hours
T1 construct: expression of target proteins in cells; endogenous in cells
T1 sequence (Q9NWZ3 1-460): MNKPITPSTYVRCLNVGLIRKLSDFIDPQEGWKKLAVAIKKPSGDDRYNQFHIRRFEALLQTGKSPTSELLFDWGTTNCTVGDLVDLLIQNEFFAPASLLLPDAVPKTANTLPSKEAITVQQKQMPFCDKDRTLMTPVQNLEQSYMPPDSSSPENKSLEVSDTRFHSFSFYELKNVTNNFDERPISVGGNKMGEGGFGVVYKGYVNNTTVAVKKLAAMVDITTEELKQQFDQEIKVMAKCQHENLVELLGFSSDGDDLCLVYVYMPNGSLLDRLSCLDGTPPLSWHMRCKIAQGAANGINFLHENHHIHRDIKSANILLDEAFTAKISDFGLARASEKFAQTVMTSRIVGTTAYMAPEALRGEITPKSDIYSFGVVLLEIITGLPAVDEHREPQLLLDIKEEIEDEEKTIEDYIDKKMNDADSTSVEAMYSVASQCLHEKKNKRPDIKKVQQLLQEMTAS
How it was run: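 Compound-treated cells harvested; lysates denatured 5 min at 95 °C, run on SDS-PAGE, blotted to NC membrane, blocked 1 h RT, probed with antibodies. Densitometry vs DMSO → DC50; target normalised to internal control → % remaining, degradation = 1 − remaining.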

[5] = system: Human Multiple myeloma cell line (MM.1S); test: Inhibition of MM.1S cell proliferation (CellTiter luminescent viability); details: Homo sapiens, MM1.S, Table IA5, IRAK4 inhibitor-based, 96 hours; for inhibition at 0.01 µM: 10 nM, read-out: Inhibition Rate at 10 nM (%); for inhibition at 0.5 µM: 500 nM, read-out: Inhibition Rate at 500 nM (%)
How it was run: as §1

Degradation of substrate protein IRAK4 (substrate protein remaining %) [4]	Compound	inhibition at 0.01 µM [1]	inhibition at 0.5 µM [1]	inhibition at 0.01 µM [2]	inhibition at 0.5 µM [3]	inhibition at 0.01 µM [5]	inhibition at 0.5 µM [5]
A (0%≤substrate protein remaining %≤80%)	O=C1CCN(N2C(=O)c3ccc(N4CCC(N5CCC(CN6CCC(n7cc(NC(=O)c8cnn9ccc(N%10C[C@H]%11C[C@@H]%10CO%11)nc89)c(C(F)F)n7)CC6)CC5)CC4)cc3C2=O)C(=O)N1 [GT-05816, 5-((1R,4R)-2-oxa-5-azabicyclo[2.2.1]heptan-5-yl)-N-(3-(difluoromethyl)-1-(1-((1′-(2-(2,4-dioxotetrahydropyrimidin-1(2H)-yl)-1,3-dioxoisoindolin-5-yl)-[1,4′-bipiperidin]-4-yl)methyl)piperidin-4-yl)-1H-pyrazol-4-yl)pyrazolo[1,5-a]pyrimidine-3-carboxamide]	-10 to -5%	50 to 60%	30 to 40%	15 to 20%		
A (0%≤substrate protein remaining %≤80%)	O=C1CCN(N2C(=O)c3ccc(CN4CCC(n5cc(NC(=O)c6coc(-c7ccnc(NCC(F)(F)F)c7)n6)c(C(F)F)n5)CC4)cc3C2=O)C(=O)N1 [GT-05188, N-(3-(difluoromethyl)-1-(1-((2-(2,4-dioxotetrahydropyrimidin-1(2H)-yl)-1,3-dioxoisoindolin-5-yl)methyl)piperidin-4-yl)-1H-pyrazol-4-yl)-2-(2-((2,2,2-trifluoroethyl)amino)pyridin-4-yl) oxazole-4-carboxamide]	36 to 45%	80 to 100%	30 to 40%	40 to 60%	10 to 15%	30 to 40%
A (0%≤substrate protein remaining %≤80%)	O=C1CCN(N2C(=O)c3ccc(N4CCC(CN5CCC(n6cc(NC(=O)c7cnn8ccc(N9CCOCC9)nc78)c(C(F)F)n6)CC5)CC4)cc3C2=O)C(=O)N1 [GT-05291, N-(3-(difluoromethyl)-1-(1-((1-(2-(2,4-dioxotetrahydropyrimidin-1(2H)-yl)-1,3-dioxoisoindolin-5-yl)piperidin-4-yl)methyl)piperidin-4-yl)-1H-pyrazol-4-yl)-5-morpholinopyrazolo[1,5-a]pyrimidine-3-carboxamide]	50 to 60%	60 to 80%	25 to 30%	25 to 30%	10 to 15%	20 to 25%
A (0%≤substrate protein remaining %≤80%)	O=C1CCN(N2C(=O)c3cc(F)c(N4CCN(C[C@H]5CC[C@H](n6cc(NC(=O)c7cnn8ccc(N9C[C@H]%10C[C@@H]9CO%10)nc78)c(C(F)F)n6)CC5)CC4)cc3C2=O)C(=O)N1 [GT-05239, 5-((1R,4R)-2-oxa-5-azabicyclo[2.2.1]heptan-5-yl)-N-(3-(difluoromethyl)-1-((1r,4R)-4-((4-(2-(2,4-dioxotetrahydropyrimidin-1(2H)-yl)-6-fluoro-1,3-dioxoisoindolin-5-yl)piperazin-1-yl)methyl)cyclohexyl)-1H-pyrazol-4-yl)pyrazolo[1,5-a]pyrimidine-3-carboxamide]			30 to 40%	20 to 25%		
A (0%≤substrate protein remaining %≤80%)	O=C1CCN(N2C(=O)c3ccc(N4CC5CCC(C4)N5C[C@H]4CC[C@H](n5cc(NC(=O)c6cnn7ccc(N8C[C@H]9C[C@@H]8CO9)nc67)c(C(F)F)n5)CC4)cc3C2=O)C(=O)N1 [GT-05825, 5-((1R,4R)-2-oxa-5-azabicyclo[2.2.1]heptan-5-yl)-N-(3-(difluoromethyl)-1-((1r,4R)-4-((3-(2-(2,4-dioxotetrahydropyrimidin-1(2H)-yl)-1,3-dioxoisoindolin-5-yl)-3,8-diazabicyclo[3.2.1]octan-8-yl)methyl)cyclohexyl)-1H-pyrazol-4-yl)pyrazolo[1,5-a]pyrimidine-3-carboxamide]			15 to 20%	25 to 30%		

More lines, now with the values behind:

Compound	Degradation of substrate protein IRAK4 (substrate protein remaining %) [4]	inhibition at 0.01 µM [1]	inhibition at 0.5 µM [1]	inhibition at 0.01 µM [2]	inhibition at 0.5 µM [3]	inhibition at 0.01 µM [5]	inhibition at 0.5 µM [5]
Cc1cc(-c2nc(C(=O)Nc3cc4oc(N5CCN(CC6CCN(c7cccc8c7C(=O)N(N7CCC(=O)NC7=O)C8=O)CC6)CC5)nc4nc3N3CC[C@@H](O)C3)co2)ccn1 [GT-05806, (R)—N-(2-(4-((1-(2-(2,4-dioxotetrahydropyrimidin-1(2H)-yl)-1,3-dioxoisoindolin-4-yl)piperidin-4-yl)methyl)piperazin-1-yl)-5-(3-hydroxypyrrolidin-1-yl)oxazolo[4,5-b]pyridin-6-yl)-2-(2-methylpyridin-4-yl) oxazole-4-carboxamide]	A (0%≤substrate protein remaining %≤80%)	45 to 50%	80 to 100%	20 to 25%	25 to 30%		
CC(C)Nc1cc(-n2ccc3cc(C#N)cnc32)ncc1C(=O)NC1CCN(Cc2ccc3c(c2)CN(N2CCC(=O)NC2=O)C3=O)CC1 [GT-05319, 6-(5-cyano-1H-pyrrolo[2,3-b]pyridin-1-yl)-N-(1-((2-(2,4-dioxotetrahydropyrimidin-1(2H)-yl)-1-oxoisoindolin-5-yl)methyl)piperidin-4-yl)-4-((isopropyl)amino) nicotinamide]	A (0%≤substrate protein remaining %≤80%)			30 to 40%	40 to 60%	30 to 40%	30 to 40%
CC(C)(O)c1cc2nc(C3CCN(CC4CCN(c5cccc6c5C(=O)N(N5CCC(=O)NC5=O)C6=O)CC4)CC3)sc2cc1NC(=O)c1cccc(C(F)(F)F)n1 [GT-05818, N-(2-(1-((1-(2-(2,4-dioxotetrahydropyrimidin-1(2H)-yl)-1,3-dioxoisoindolin-4-yl)piperidin-4-yl)methyl)piperidin-4-yl)-5-(2-hydroxypropan-2-yl)benzo[d]thiazol-6-yl)-6-(trifluoromethyl) picolinamide]	A (0%≤substrate protein remaining %≤80%)	10 to 20%	50 to 60%	20 to 25%	10 to 15%		
CC(C)(O)c1cc2nc(C3CCN(CC4CCN(c5ccc6c(c5)C(=O)N(N5CCC(=O)NC5=O)C6=O)CC4)CC3)sc2cc1NC(=O)c1cccc(C(F)(F)F)n1 [GT-05819, N-(2-(1-((1-(2-(2,4-dioxotetrahydropyrimidin-1(2H)-yl)-1,3-dioxoisoindolin-5-yl)piperidin-4-yl)methyl)piperidin-4-yl)-5-(2-hydroxypropan-2-yl)benzo[d]thiazol-6-yl)-6-(trifluoromethyl) picolinamide]	A (0%≤substrate protein remaining %≤80%)			15 to 20%	25 to 30%		
